According to US20240299336A1, “SHELF-STABLE FORMULATIONS OF BENZOYL PEROXIDE AND METHODS OF PRODUCING SAME” (BLUE HILL TECHNOLOGIES LLC, priority 2022, published 2024):

Tests used:
Assay type in all cases: physicochemical
[1] = Effect of antioxidants on benzene levels in 10% w/v benzoyl peroxide formulations; details: 10% w/v benzoyl peroxide plus antioxidant
Protocol: For benzoyl peroxide stability studies in glycerol, benzoyl peroxide was prepared in a stock suspension of 20% w/v in glycerol and mixed 1:1 with 20% w/v suspensions or v/v solutions of antioxidants in glycerol. For pH experiments, the same stock suspension of benzoyl peroxide was mixed 1:1 with a 50% glycerol solution with 200 mM buffering agent (Citrate buffer pH 3.0, Tris Buffer pH 7.0, or Tris Buffer pH 9.0) for final 75% glycerol solution. The final volume of all reactions was 100 μL in GC headspace vials with 10% solution benzoyl peroxide (10 mg) and 10% antioxidant or 100 mM buffering agent. Vials were immediately crimp sealed for incubation. For analysis, 4.9 mL of DMSO was added to make up the final volume to approximate 5 mL, crimp sealed, and gently vortexed to mix.
Benzene standard was diluted in DMSO for an 11-point calibration ranging from 10 ng/vial to 100 μg/vial. The coefficient of determination R^2 were greater than 0.999. Five (5) mL of DMSO was used for negative control samples.
(§1) The method USP <467> Residual Solvents Procedure A was modified from flame ionization detection (FID) to mass spectrometry (MS) detection for benzene in benzoyl peroxide products. The gas chromatography (GC) methods were also modified to allow shorter run time and the method was validated for addition of up to 500 mg benzoyl peroxide product or 200 ml glycerol. Identification of benzene was based on the retention time matching to certified reference standards and mass spectral m/z matching to benzene. Lower limit of detection (LLOD) was 10 ng (equivalent to 0.02 ppm in hand benzoyl peroxide products) and LLOQ was 25 μg. The measurement uncertainty was determined to be 20%.
(§2) 10% w/v benzoyl peroxide formulations were prepared. Various antioxidants were added to the formulations (10% w/v butylated hydroxytoluene (BHT), 10% w/v vitamin E acetate, or 5% w/v tert-butyl hydroquinone (TBHQ)+5% w/v BHT) to test whether these antioxidants could prevent or reduce formation of benzene under certain conditions. The various formulations were incubated at either 37° C., for up to two weeks or at 50° C., for up to two weeks. Benzene levels in each formulation were tested at various time points according to the protocols described in Example 1.

[2] = Effect of antioxidants added to FDA-approved benzoyl peroxide drug products on benzene levels; details: antioxidant added to drug product, 50° C. for 2 days
Protocol: as §1, with “benzene.” for “benzene. Lower limit of detection (LLOD) was 10 ng (equivalent to 0.02 ppm in hand benzoyl peroxide products) and LLOQ was 25 μg. The measurement uncertainty was determined to be 20%.”

[3] = Effect of solvents on benzene levels in 10% w/v benzoyl peroxide formulations; details: 10% benzoyl peroxide, 37° C. for 10 days, compared to formulations containing glycerol or NMP
Protocol: as §1, with “benzene.” for “benzene. Lower limit of detection (LLOD) was 10 ng (equivalent to 0.02 ppm in hand benzoyl peroxide products) and LLOQ was 25 μg. The measurement uncertainty was determined to be 20%.”
as §2, with “solvents” for “antioxidants”, “(water, dimethylsulfoxide (DMSO), glycerol. N-methyl-2-pyrrolidone (NMP))” for “(10% w/v butylated hydroxytoluene (BHT), 10% w/v vitamin E acetate, or 5% w/v tert-butyl hydroquinone (TBHQ)+5% w/v BHT)”

[4] = Benzene levels formed by crystalline benzoyl peroxide incubated at 50° C.; details: 50° C. for up to 12 days
Protocol: as §1, with “benzene.” for “benzene. Lower limit of detection (LLOD) was 10 ng (equivalent to 0.02 ppm in hand benzoyl peroxide products) and LLOQ was 25 μg. The measurement uncertainty was determined to be 20%.”

Row | levels of benzene formed in the formulations ([1]; 37° C. for up to two weeks) | levels of benzene formed in the formulations ([1]; 50° C. for up to two weeks) | Compound | levels of benzene formed in two FDA-approved drug products with antioxidant [2] | levels of benzene formed in the formulations [3] | further results
1 | most dramatic reduction | most dramatic reduction | Cc1cc(C(C)(C)C)c(O)c(C(C)(C)C)c1 [BHT, butylated hydroxytoluene] | reduce the degradation of benzoyl peroxide to benzene | – | –
2 | – | – | C[S+](C)[O-] [DMSO, dimethylsulfoxide] | – | most dramatic reduction in, or complete prevention of, benzene levels | –
3 | – | – | CC(C)(C)c1cc(O)ccc1O [TBHQ, tert-butyl hydroquinone] | reduce the degradation of benzoyl peroxide to benzene | – | –
4 | – | – | O=C(OOC(=O)c1ccccc1)c1ccccc1 [crystalline benzoyl peroxide, benzoyl peroxide] | – | – | levels of benzene formed [4]: may be protected from forming benzene levels
5 | reduced the levels of benzene | reduced the levels of benzene | CC(=O)Oc1c(C)c(C)c2c(c1C)CCC(C)(CCC[C@H](C)CCC[C@H](C)CCCC(C)C)O2 (stereo partly drawn) [vitamin E acetate] | – | – | –
6 | – | – | O [water] | – | most dramatic reduction in, or complete prevention of, benzene levels | –
